One data set is described as follows: in vivo. The settings on record: mouse, intravenous, ddy strain mice, solution in 0.1 N aqueous sodium hydroxide, read-out: median lethal dose (LD50). As to the method:
Each test compound was intravenously administered to groups of 4 ddy strain mice (body weight: 30±1 g) each, whereby its acute toxicity was investigated. In this case, the compound was administered in the form of a solution prepared by dissolving the compound in a 0.1 N aqueous sodium hydroxide solution.

Another data set deals with S. aureus F-597. Kind of data set: Antibacterial activity (MIC), S. aureus F-597 (methicillin-resistant). Format: cell-based. The settings on record: Mueller Hinton agar, 10^6 cells/plate, 37° C. As for the experimental part:
(§1) According to the standard method of Japan Society of Chemotherapy [CHEMOTHERAPY, vol. 29, No. 1, pages 76-79 (1981)], a loopful of a cell suspension obtained by culturing in Mueller Hinton broth (mfd. by Difco) at 37° C. for 20 hours and adjusted to a concentration of 10^6 cells/plate (10^8 cells/ml) was inoculated into a Mueller Hinton agar medium (mfd. by Difco) containing the test compound, followed by incubation at 37° C. for 20 hours. […] In Table 1, *1 to *4 denote the following strains:
3: methicillin-resistant S. aureus

The next data set deals with S. aureus FDA209P. Kind of data set: Antibacterial activity (MIC), S. aureus FDA209P. It counts as cell-based, Staphylococcus aureus. As to the method:
(§2) According to the standard method of Japan Society of Chemotherapy [CHEMOTHERAPY, vol. 29, No. 1, pages 76-79 (1981)], a loopful of a cell suspension obtained by culturing in Mueller Hinton broth (mfd. by Difco) at 37° C. for 20 hours and adjusted to a concentration of 10^6 cells/plate (10^8 cells/ml) was inoculated into a Mueller Hinton agar medium (mfd. by Difco) containing the test compound, followed by incubation at 37° C. for 20 hours. […]

For another data set, the system named is E. coli NIHJ JC-2. Kind of data set: Antibacterial activity (MIC), E. coli NIHJ JC-2. It counts as cell-based, Escherichia coli. As to the method: as §2
In the next data set the test system is S. aureus F-137. The data set can be described thus: Antibacterial activity (MIC), S. aureus F-137 (β-lactamase-producing). Format: cell-based. The settings on record: 10^6 cells/plate, 37° C., 20 hours. As to the method: as §1
2: β-lactamase-producing S. aureus

The mark [1] stands for this setting: Staphylococcus aureus, F597, 20 h, read-out: MIC.
Where [2] appears, read: Staphylococcus aureus, S. aureus FDA209P, Mueller Hinton agar, 10^6 cells/plate, 37° C., 20 hours, read-out: MIC.
[3] abbreviates: Escherichia coli, NIHJJC2, E. coli NIHJ JC-2, Mueller Hinton agar, 10^6 cells/plate, 37° C., 20 hours, read-out: MIC.
[4] abbreviates: Staphylococcus aureus, F137, Mueller Hinton agar, read-out: MIC.

Values after ≈ are worked out from the molar mass of the structure shown. Like-named read-outs stand apart in the source and are kept apart here.

Take `CC1NCc2cc(-c3ccc4c(=O)c(C(=O)O)cn(C5CC5)c4c3OC(F)F)ccc21` (racemic) [g, (±)-1-Cyclopropyl-8-difluoromethoxy-7-(1-methyliso-indolin-5-yl)-1,4-dihydro-4-oxoquinoline-3-carboxylic acid]: the LD50 in “in vivo” was ≥ 200 mg/kg. The MIC was 0.1 µg/mL (≈ 0.235 µM) with S. aureus F-597 (setting [1]), ≤ 0.05 µg/mL with S. aureus FDA209P (setting [2]), ≤ 0.05 µg/mL in the data set on E. coli NIHJ JC-2 (setting [3]) and ≤ 0.05 µg/mL in the data set on S. aureus F-137 (setting [4]).

Take `Cc1c(-c2cc(F)c3c(c2)CNC3)ccc2c(=O)c(C(=O)O)cn(C3CC3)c12` [b, 1-Cyclopropyl-7-(7-fluoroisoindolin-5-yl)-8-methyl-1,4-dihydro-4-oxoquinoline-3-carboxylic acid]: the MIC in the data set on S. aureus F-597 (setting [1]), in the data set on S. aureus FDA209P (setting [2]), with E. coli NIHJ JC-2 (setting [3]) and in the data set with S. aureus F-137 (setting [4]) was ≤ 0.05 µg/mL in each case.

Turning to `CC1NCc2cc(-c3ccc4c(=O)c(C(=O)O)cn(C5CC5)c4c3OC(F)F)ccc21` (single isomer, unassigned; (+)) [h, (+)-1-Cyclopropyl-8-difluoromethoxy-7-(1-methyliso-indolin-5-yl)-1,4-dihydro-4-oxoquinoline-3-carboxylic acid], the MIC against S. aureus F-597 (20 hours) was 0.2 µg/mL (≈ 0.469 µM); in the data set on S. aureus FDA209P (setting [2]), ≤ 0.05 µg/mL; in the data set with E. coli NIHJ JC-2 (setting [3]), ≤ 0.05 µg/mL; in the data set with S. aureus F-137 (setting [4]) it was ≤ 0.05 µg/mL.

`COc1c(-c2cc(F)c3c(c2)CNC3)ccc2c(=O)c(C(=O)O)cn(C3CC3)c12` [d, 1-Cyclopropyl-7-(7-fluoroisoindolin-5-yl)-8-methoxy-1,4-dihydro-4-oxoquinoline-3-carboxylic acid]: the MIC in the data set with S. aureus F-597 (setting [1]), in the data set with S. aureus FDA209P (setting [2]), in the data set with E. coli NIHJ JC-2 (setting [3]) and in the data set on S. aureus F-137 (setting [4]) was ≤ 0.05 µg/mL each time.

With `O=C(O)c1cn(C2CC2)c2cc(N3CCNCC3)c(F)cc2c1=O` [j, 1-Cyclopropyl-6-fluoro-7-(1-piperazinyl)-1,4-dihydro-4-oxoquinoline-3-carboxylic acid, reference compound], the MIC is 0.2 µg/mL (≈ 0.604 µM) with S. aureus FDA209P (Staphylococcus aureus, FDA209P, 20 h) and ≤ 0.05 µg/mL in the data set with E. coli NIHJ JC-2 (Escherichia coli, NIHJJC2, 20 h).

As to `CC1NCc2cc(-c3ccc4c(=O)c(C(=O)O)cn(C5CC5)c4c3OC(F)F)ccc21` (single isomer, unassigned; (-)) [i, (-)-1-Cyclopropyl-8-difluoromethoxy-7-(1-methyliso-indolin-5-yl)-1,4-dihydro-4-oxoquinoline-3-carboxylic acid], the LD50 in “in vivo” is ≥ 200 mg/kg. Moreover, the MIC against S. aureus F-597 (20 hours) is ≤ 0.05 µg/mL; against S. aureus FDA209P (S. aureus FDA209P, Mueller Hinton agar, 10^6 cells/plate, 37° C., 20 hours), ≤ 0.05 µg/mL; against E. coli NIHJ JC-2 (E. coli NIHJ JC-2, Mueller Hinton agar, 10^6 cells/plate, 37° C., 20 hours), ≤ 0.05 µg/mL; in the data set on S. aureus F-137 (Mueller Hinton agar), ≤ 0.05 µg/mL.

With `O=C(O)c1cn(C2CC2)c2c(OC(F)F)c(-c3ccc4c(c3)CNC4)ccc2c1=O` [e, 1-Cyclopropyl-8-difluoromethoxy-7-(isoindolin-5-yl)-1,4-dihydro-4-oxoquinoline-3-carboxylic acid], the LD50 in the data set “in vivo” was ≥ 200 mg/kg. For the same compound, the MIC with S. aureus F-597 (setting [1]) was 0.1 µg/mL (≈ 0.242 µM); in the data set with S. aureus FDA209P (setting [2]), ≤ 0.05 µg/mL; in the data set on E. coli NIHJ JC-2 (setting [3]) it was ≤ 0.05 µg/mL; in the data set on S. aureus F-137 (setting [4]), ≤ 0.05 µg/mL.

On to `COc1c(-c2ccc3c(c2)CNC3)ccc2c(=O)c(C(=O)O)cn(C3CC3)c12` [c, 1-Cyclopropyl-7-(isoindolin-5-yl)-8-methoxy-1,4-dihydro-4-oxoquinoline-3-carboxylic acid], for which the MIC in the data set on S. aureus F-597 (setting [1]) is 0.1 µg/mL (≈ 0.266 µM); in the data set on S. aureus FDA209P (setting [2]), ≤ 0.05 µg/mL; in the data set on E. coli NIHJ JC-2 (setting [3]), ≤ 0.05 µg/mL; with S. aureus F-137 (setting [4]), ≤ 0.05 µg/mL.

Take `O=C(O)c1cn(C2CC2)c2c(OC(F)F)c(-c3cc(F)c4c(c3)CNC4)ccc2c1=O` [f, 1-Cyclopropyl-8-difluoromethoxy-7-(7-fluoroiso-indolin-5-yl)-1,4-dihydro-4-oxoquinoline-3-carboxylic acid]: the MIC in the data set with S. aureus F-597 (setting [1]), in the data set with S. aureus FDA209P (setting [2]), in the data set with E. coli NIHJ JC-2 (setting [3]) and in the data set on S. aureus F-137 (setting [4]) was ≤ 0.05 µg/mL in each case.

On to `Cc1c(-c2ccc3c(c2)CNC3)ccc2c(=O)c(C(=O)O)cn(C3CC3)c12` [a, 1-Cyclopropyl-7-(isoindolin-5-yl)-8-methyl-1,4-dihydro-4-oxoquinoline-3-carboxylic acid], for which the MIC was 0.1 µg/mL (≈ 0.277 µM) with S. aureus F-597 (setting [1]), ≤ 0.05 µg/mL in the data set on S. aureus FDA209P (setting [2]), ≤ 0.05 µg/mL with E. coli NIHJ JC-2 (setting [3]) and ≤ 0.05 µg/mL in the data set with S. aureus F-137 (setting [4]).

Source of the values: patent US6025370A, “Quinolonecarboxylic acid derivatives or salts thereof” (Toyama Chemical Co., Ltd., priority 1996, dated 2000).
